The source of these data is patent publication US4868183A, “N-pyrazinyl substituted P-aminophenols” (Otsuka Pharmaceutical Factory, Inc., priority 1986, dated 1989).

The first assay has as its system carrageenin-induced paw edema. The assay can be described thus: Anti-inflammatory activity: inhibition of carrageenin-induced paw edema in rats. Format: in vivo, rat (male, S.D. strain). Conditions: Rattus norvegicus, po, 3 h, read-out: Inhibition percent of edema. The protocol:
(1) Anti-inflammatory activity: inhibition of carrageenin-induced paw edema in rats The compound was tested for the above activity according to the method of C.A. Winter et al. [Proc. Soc. […] One hour after the test compound was orally given to the animal, 0.1 ml of 1% carrageenin solution was subcutaneously injected into the right footpad. The paw volume was measured 3 hours thereafter, and the resulting increase in the volume was calculated based on the volume before the injection of carrageenin solution. The percent inhibition was determined in comparison with the increase in the control group.
On the technique in general: In the carrageenan paw model, swelling and tenderness develop within hours.
Regarding `COc1ccc2c(c1)c(CC(=O)O)c(C)n2C(=O)c1ccc(Cl)cc1` [Indomethacin, reference compound], the inhibition in vivo at 5 mg/kg worked out at 36%.

Still in this assay, the particulars now being: Rattus norvegicus, po; 10 mg/kg p.o., 1 h before carrageenin; paw volume 3 h after; vs control; read-out: Inhibition percent of edema.
As for `CC(C)(C)c1cc(Nc2ncccn2)cc(C(C)(C)C)c1O` [Compound 13, 2,6-di-tert-butyl-4-[(2-pyrimidinyl)amino]phenol], the inhibition in vivo at 10 mg/kg worked out at 41%.

Staying with this assay, now noted: Rattus norvegicus, po; 25 mg/kg p.o., 1 h before carrageenin; paw volume 3 h after; vs control; read-out: Inhibition percent of edema.
With `CC(C)c1cc(Nc2cccnn2)cc(C(C)(C)C)c1O` [Compound 10], the inhibition in vivo at 25 mg/kg amounted to 35%.
Still for that read-out and setting: for `CC(C)(C)c1cc(Nc2ccnnc2)cc(C(C)(C)C)c1O` [Compound 12, 2,6-di-tert-butyl-4-[(4-pyridazinyl)amino]phenol] the value was 29%; for `Cc1ccc(Nc2cc(C(C)(C)C)c(O)c(C(C)(C)C)c2)nn1` [Compound 17, 2,6-di-tert-butyl-4-[(6-methyl-3-pyridazinyl)amino]phenol], 36%.
In the case of `COc1ccc(Nc2cc(C(C)(C)C)c(O)c(C(C)(C)C)c2)nn1` [Compound 24, 2,6-di-tert-butyl-4-[(6-methoxy-3-pyridazinyl)amino]phenol], the inhibition in vivo at 25 mg/kg was 31%.
The same measure, in the same setting: in the case of `CC(C)(C)c1cc(Nc2ncc[nH]2)cc(C(C)(C)C)c1O` [Compound 48] it was 63%.
As for `CC(C)(C)c1cc(Nc2cncc[n+]2[O-])cc(C(C)(C)C)c1O` [Compound 64, 2-N-(3,5-di-tert-butyl-4-hydroxyphenyl)aminopyrazine-1-oxide], the inhibition in vivo at 25 mg/kg amounted to 31%.

The assay is the same for the next values; noted with them: Rattus norvegicus, po; 50 mg/kg p.o., 1 h before carrageenin; paw volume 3 h after; vs control; read-out: Inhibition percent of edema.
As to `CC(C)(C)c1cc(Nc2cnccn2)cc(C(C)(C)C)c1O` [Compound 1, 2,6-di-tert-butyl-4-pyrazinylaminophenol], the inhibition in vivo at 50 mg/kg is 37%.
For `CC(C)(C)c1cc(Nc2ccncn2)cc(C(C)(C)C)c1O` [Compound 14, 2,6-di-tert-butyl-4-[(4-pyrimidinyl)amino]phenol], the inhibition in vivo at 50 mg/kg was found to be 30%.
Same read-out and setting: in the case of `Cc1ccnc(Nc2cc(C(C)(C)C)c(O)c(C(C)(C)C)c2)n1` [Compound 18, 2,6-di-tert-butyl-4-[(4-methyl-2-pyrimidinyl)amino]phenol] it was 36%; in that of `Cc1cc(Nc2cc(C(C)(C)C)c(O)c(C(C)(C)C)c2)no1` [Compound 50], 12%.
The same measure, in the same setting: for `CC(C)(C)c1cc(Nc2nccnn2)cc(C(C)(C)C)c1O` [Compound 59, 2,6-di-tert-butyl-4-[(1,2,4-triazin-3-yl)amino]phenol] the value was 37%; for `Cc1sccc1Nc1cc(C(C)(C)C)c(O)c(C(C)(C)C)c1` [Compound 61, 2,6-di-tert-butyl-4-[(2-methyl-3-thienyl)amino]phenol], 25%.

Still in this assay, the particulars now being: Rattus norvegicus, po; 100 mg/kg p.o., 1 h before carrageenin; paw volume 3 h after; vs control; read-out: Inhibition percent of edema.
With `CC(C)c1cc(Nc2cnccn2)cc(C(C)(C)C)c1O` [Compound 4, 2-isopropyl-6-tert-butyl-4-pyrazinylaminophenol], the inhibition in vivo at 100 mg/kg is 39%.
For the compound `CC(C)(C)c1cc(Nc2cccnn2)cc(C(C)(C)C)c1O` [Compound 11, 2,6-di-tert-butyl-4-[(3-pyridazinyl)amino]phenol], the inhibition in vivo at 100 mg/kg is 62%.
On the same count and under the same terms, in the case of `CC(C)(C)c1cc(Nc2cncnc2)cc(C(C)(C)C)c1O` [Compound 15] it was 16%.
Regarding `Cc1cnc(Nc2cc(C(C)(C)C)c(O)c(C(C)(C)C)c2)cn1` [Compound 16], the inhibition in vivo at 100 mg/kg is 10%.
On the same count and under the same terms, in the case of `CC(C)(C)c1cc(Nc2cncnc2N)cc(C(C)(C)C)c1O` [Compound 22, 2,6-di-tert-butyl-4-[(4-amino-5-pyrimidinyl)amino]phenol] it was 32%.
Same read-out and setting: in the case of `CC(C)(C)c1cc(Nc2cncc(Cl)n2)cc(C(C)(C)C)c1O` [Compound 25] it was 15%.
Still for that read-out and setting: for `CC(C)(C)c1cc(Nc2ccc(Cl)nn2)cc(C(C)(C)C)c1O` [Compound 26, 2,6-di-tert-butyl-4-[(6-chloro-3-pyridazinyl)amino]phenol] the value was 27%.
For the compound `CC(C)(C)c1cc(Nc2cc(Cl)nnc2Cl)cc(C(C)(C)C)c1O` [Compound 27, 2,6-di-tert-butyl-4-[(3,6-dichloro-4-pyridazinyl)amino]pheonl], the inhibition in vivo at 100 mg/kg amounted to 33%.
The same measure, in the same setting: in the case of `CCOc1ccc(Nc2cc(C(C)(C)C)c(O)c(C(C)(C)C)c2)nn1` [Compound 28, 2,6-di-tert-butyl-4-[(6-ethoxy-3-pyridazinyl)amino]phenol] it was 33%.
On the same count and under the same terms, for `CC(C)(C)c1cc(Nc2ccc(CO)nn2)cc(C(C)(C)C)c1O` [Compound 33, 2,6-di-tert-butyl-4-[(6-hydroxymethyl-3-pyridazinyl)amino]phenol] the value was 46%.
Same read-out and setting: in the case of `CC(C)(C)c1cc(Nc2cc[nH]n2)cc(C(C)(C)C)c1O` [Compound 34, 2,6-di-tert-butyl-4-(3-pyrazolylamino)phenol] it was 65%.
`Cn1nccc1Nc1cc(C(C)(C)C)c(O)c(C(C)(C)C)c1` [Compound 39, 2,6-di-tert-butyl-4-[(2-methyl-3-pyrazolyl)amino]phenol]: the inhibition in vivo at 100 mg/kg worked out at 46%.
Take `CC(C)(C)c1cc(Nc2ncco2)cc(C(C)(C)C)c1O` [Compound 49, 2,6-di-tert-butyl-4-[(2-oxazolyl)amino]phenol]: the inhibition in vivo at 100 mg/kg came to 41%.
The same measure, in the same setting: in the case of `CC(C)(C)c1cc(Nc2c[nH]nn2)cc(C(C)(C)C)c1O` [Compound 51, 2,6-di-tert-butyl-4-[(1,2,3-triazol-4-yl)amino]phenol] it was 42%; in that of `CC(C)(C)c1cc(Nc2nnc[nH]2)cc(C(C)(C)C)c1O` [Compound 54], 20%.
On the same count and under the same terms, in the case of `CC(C)(C)c1cc(Nn2cnnc2)cc(C(C)(C)C)c1O` [Compound 55, 2,6-di-tert-butyl-4-[(1,2,4-triazol-4-yl)amino]phenol] it was 23%; in that of `CC(C)(C)c1cc(Nc2nc(-c3ccccc3)ns2)cc(C(C)(C)C)c1O` [Compound 56, 2,6-di-tert-butyl-4-[(3-phenyl-1,2,4-thiadiazol-5-yl)amino]phenol], 13%; in that of `Cc1nnc(Nc2cc(C(C)(C)C)c(O)c(C(C)(C)C)c2)s1` [Compound 58, 2,6-di-tert-butyl-4-[(5-methyl-1,3,4-thiadiazol-2-yl)amino]pheonl], 30%.
